Measured values from publication PMC7464270, “The Interaction of Bovine β-Lactoglobulin with Caffeic Acid: From Binding Mechanisms to Functional Complexes” (Biomolecules, 2020).

Molecular target: T1, native bovine β-lactoglobulin (n-β-LG) (Bos taurus, UniProt P02754)
T1 construct: gene LGB; dimer prevails at physiological pH
T1 sequence (P02754 17-178): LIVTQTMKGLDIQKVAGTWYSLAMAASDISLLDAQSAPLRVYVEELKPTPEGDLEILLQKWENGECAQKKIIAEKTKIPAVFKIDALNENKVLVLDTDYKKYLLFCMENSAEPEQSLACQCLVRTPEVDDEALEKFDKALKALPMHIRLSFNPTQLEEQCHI
Assay: intrinsic tryptophan fluorescence quenching (excitation […] nm)
Format: binding
Details: native protein treated at 25 °C (measured at 23 ± 1 °C), Tris buffer pH 8.0; double-log

n-β-LG / Kb (10^6 Mol^-1): 0.72 ± 0.03 10^6 Mol^-1
SMILES: O=C(O)/C=C/c1ccc(O)c(O)c1 [CA, caffeic acid]
